Measurements taken from patent US11020449B2, “Use of the GK-1 peptide as an antitumoral and/or antimetastatic agent” (UNIVERSIDAD NACIONAL AUTÓNOMA DE MÉXICO, priority 2016, dated 2021).
Where two headings read alike, the source gives them in different places.

Tests used:
4T1 cells [1] = conditions: day 39, five experiments
Excerpt: It is known that the metastasis sites in the 4T1 cell-induced breast cancer murine model are lungs, brain, liver, and bone [Aslakson C. J. et al., Cancer Res. 1992, 52(6): 1399-405; Mi Z. et al., J Biol Che. 2004; 279(45): 46659-67]. Therefore, to assess the antimetastatic effect of GK-1, lungs, liver, and brain from mice in G1 and G2 groups in the Example of Embodiment 3 were recovered and fixed with a 10% formaldehyde solution to macroscopically identify any metastatic focus on these organs.

B16-F10 cells [2] = assay: B16-F10 melanoma model: survival rate and lung tumor foci (four groups); assay type: in vivo, C57BL/6 mice; conditions: for survival rate: i.v. weekly, 32 days after implantation
Description: The B16 melanoma model is a lung metastasis model widely used for therapy evaluation. While the term “lung metastasis” is used to characterize this type of model, technically each lung nodule is a primary tumor.
Once the tumor is established (16 days after B16-F10 cells were implanted), mice were separated into four groups: One group was administered with a 0.10 μg/μL GK-1 solution in DMSO (0.05%); another group was administered with 0.10 μg/μL GK-1 solution in ISS; a third group received 100 μL of DMSO (0.05%); and a fourth group was administered with 100 μL of ISS; treatments were applied intravenously in all cases. Treatments were repeated weekly after a palpable tumor appeared and for 32 days after cell implantation.
In order to establish the antitumor effect of GK-1, lungs were dissected from mice in all experimental groups at the day 32 post-implantation, and were fixed in a 10% formaldehyde solution to macroscopically determine the number of tumor foci developed.

4T1 cells [3] = conditions: superficial zone, day 39
Description: A histological analysis was performed on primary tumors at day 39 post-implantation, to determine the percentage of zones with tissue death in mice from the Example of Embodiment 3. All tumors were manually sectioned and fixed in a 10% formaldehyde solution overnight at 4° C. Then, samples were included in paraffin and processed to obtain 4-μm slices; slices were stained with hematoxylin and eosin (H&E). The upper, middle, and deep tumor sections were analyzed through an Olympus B×50 microscope equipped with a digital camera and using the Infinity Analyze software (v6.3.0).

[4] = tested on: T cell, macrophage, and dendritic cells; conditions: in vitro; cited from earlier work
[5] = tested on: dendritic cells (DCs) loaded with the MAGE antigen; conditions: immunotherapy against murine melanoma; cited from earlier work
4T1 cells [6] = tested on: 4T1 cells
Description: The 4T1 cell line (American Type Culture Collection, Manassas, Va.) was used to induce a neoplasia emulating breast cancer; according to the natural history of the disease, metastasis to lung should be observed [Aslakson C. J. et al., Cancer Res, 1992. 52(6): 1399-405; Mi Z et al., J Biol Chem, 2004. 279(45):46659-67]. The 4T1 cell line was cultured in RPMI medium (Gibco, Grand Island, N.Y.) supplemented with 10% of heat-inactivated fetal bovine serum, 10 U/mL of penicillin, and 100 μg/mL of streptomycin, at 37° C. under 95% relative humidity and 5% CO2. Cultured cells were recovered by trypsinization (0.25% trypsin-0.53 mM EDTA) and washed three times with cold serum-free RPMI medium before subcutaneous implanting. About 1×10^3 4T1 cells were subcutaneously injected in the right mammary gland in BALB/cAnN mice. Tumor induction was determined by the appearance of 1 mm×1 mm solid tumors (palpable tumor), between 18 and 20 days after cell implantation. Once the established tumors reached that size, mice were distributed into two groups: Group 1 (G1) was intravenously administered with a solution of 10 μg of GK-1 in 100 μL of ISS (corresponding to 0.5 mg/kg); Group 2 (G2) was administered with ISS (100 μL) by the same route. The administration was repeated weekly at different times.
All animals were weighed before treatment, and tumor growth was continuously recorded. Tumor volume was calculated according to the following formula [Carlsson G. et al., J Cancer Res Clin Oncol, 1983. 105(1): 20-23]: Volume (mm^3)=πLW^2/6, where L is the largest side and W is the smallest side.
At the day 39 after cell implanting, animals were euthanized in accordance with the guidelines in the United Kingdom Coordinating Committee on Cancer Research (UKCCCR). The primary tumor, spleen, lungs, liver, and brain were dissected. In total, five separate experiments were performed.
As mentioned in the Example of Embodiment 1, once palpable tumors were developed in mice (G1: females X=6, males X=4; G2: females X=6, males X=4 per experiment), tumor volume was determined every third day for 39 days, with electronic Vernier.

[7] = tested on: TCD4+ and TCD8+ lymphocyte populations; conditions: cited from earlier work
influenza vaccine = conditions: cited from earlier work
B16-F10 cells [8] = conditions: for Number of tumors developed (Tumors): 10 μg GK-1 i.v. weekly, 32 days, mean±standard deviation
Description: To evaluate the antimetastatic effect of GK-1 in melanoma, 2×10^4 cells of the B16-F10 line were intravenously injected to C57BL/6 mice (n=40; 20 females and 20 males). At day 16 post-implantation, mice were separated into two groups: The G1 group (10 males and 10 females) was intravenously administered with 10 μg of GK-1 dissolved in 100 μL of ISS; the G2 group (10 males, 10 females) was intravenously administered with 100 μL of ISS. Treatments were repeated weekly for 32 days after cell implantation.

[9] = tested on: 4T1 mammary carcinoma murine model
Description: Lungs, liver, spleen, brain, and primary tumor were dissected from mice in the groups G1 and G2 of the Example of Embodiment 3, to determine the soluble factors present in the tumor microenvironment and in metastatic-associated organs; in order to obtained a protein extract, 5 mg of each tissue were weighed and placed in 300 μL of lysis buffer with protease inhibitors, then were homogenized. Finally, homogenates were centrifuged for 20 min at 13 000 rpm at 4° C., collecting the supernatants (protein extract). Additionally, serum was isolated from blood samples obtained from all mice. Serum and protein extract samples were processed through the Magpix Luminex system (xPonent software) to determine the concentration of cytokines, chemokines, and growth factors.
Data in Tables 2, 3, and 4 correspond to spleen, lung, and brain soluble factor concentrations expressed in pg/mg of protein. A random sample of 6 mice was taken from 5 independent experiments. * P<0.05.

melanoma = conditions: mouse melanoma model; cited from earlier work
4T1 cells [10] = assay: Survival rate in mice with 4T1 breast cancer; assay type: in vivo, BALB/cAnN mice; conditions: log-rank test
Description: As used in the following Examples of Embodiment, GK-1 was synthesized under good manufacturing practices by USV, LTD, with a purity higher than 95%. The peptide was intravenously administered to mice at a dose of 0.5 mg/kg.
Four to six weeks-old female and male BALB/cAnN mice were used, with a weight range of 17-23 g for females and 20-27 g for males. All mice were maintained in pathogen-free conditions, as required by the Mexican Official Regulation NOM-062-ZOO-1999.
J. et al., Cancer Res, 1992. […] 279(45):46659-67]. […] The administration was repeated weekly at different times.
To determine the survival rate in mice with breast cancer, 1×10^3 4T1 cells were implanted to 40 BALB/cAnN mice as described in the Example of Embodiment 1; 10 males and 10 females were included in each group (G1 and G2). The administration schedule described in the Example of Embodiment 1 was repeated weekly after a solid tumor development, and for 62 days after cell implant.

G-Y-Y-Y-P-S-D-P-N-T-F-Y-A-P-P-Y-S-A (GYYYPSDPNTFYAPPYSA; tapeworm) [GK-1, 18-aminoacid peptide identified and cloned from the KETc7 protein of Taenia crassiceps cysticerci]
proportion of mice with lung metastatic foci within the 0-20 range (4T1 cells [1]): 67%
survival rate (B16-F10 cells [2]; GK-1 dissolved in DMSO (0.05%)): 25%
survival rate (B16-F10 cells [2]; GK-1 dissolved in ISS): 57.14%
number of tumor foci developed in lungs versus other treatments (B16-F10 cells [2]; day 32, GK-1 in DMSO or ISS versus vehicles): no statistically significant differences
area of necrotic-apoptotic cells in primary tumor (4T1 cells [3]): increase in the area of necrotic-apoptotic cells
immune cell activation (CD80/86, MHC-II expression; IFN-γ, TNF-α, CCL2 secretion) [4]: promoting T cell, macrophage, and dendritic cells activation
activation of MAGE-loaded DCs [5]: increase in the activation of these DCs
Tumor weight (4T1 cells [6]; Exp 1, day 39): 0.825 ± 0.391 g
Tumor weight (4T1 cells [6]; Exp 2, day 39): 0.991 ± 0.507 g
Tumor weight (4T1 cells [6]; Exp 3, day 39): 1.150 ± 0.939 g
Tumor weight (4T1 cells [6]; Exp 4, day 39): 1.477 ± 0.889 g
Tumor weight (4T1 cells [6]; Exp 5, day 39): 0.587 ± 0.339 g
Tumor weight (4T1 cells [6]; Total of five experiments, day 39): 1.044 ± 0.697 g
reduction in tumor weight with respect to untreated mice (4T1 cells [6]; day 39): 27.8%
Tumor weight (4T1 cells [6]; day 39, text, five experiments): 1.04 ± 0.70 g
tumor volume versus untreated mice (4T1 cells [6]; every third day for 39 days): lower tumor volume than untreated mice, the difference was not statistically significant
proliferation of TCD4+ and TCD8+ lymphocyte populations [7]: increase the proliferation
infiltrate of mononuclear cells to the lung parenchyma (influenza vaccine; a few days after subcutaneous administration): promotes the infiltrate of mononuclear cells
titer of specific IgG antibodies (influenza vaccine; young and senile mice, influenza vaccine adjuvant): increasing the titer of specific IgG antibodies
Distant (tumors at sites other than the lungs: liver, brain, intestine) (B16-F10 cells [8]; Females): 1/10
Lung (mice with lung tumors) (B16-F10 cells [8]; Females): 8/10
Number of tumors developed (Tumors) (B16-F10 cells [8]; Females): 62.9 ± 48.1
Distant (tumors at sites other than the lungs: liver, brain, intestine) (B16-F10 cells [8]; Males): 0/10
Lung (mice with lung tumors) (B16-F10 cells [8]; Males): 8/10
Number of tumors developed (Tumors) (B16-F10 cells [8]; Males): 77.0 ± 37.6
antimetastatic effect in melanoma (B16-F10 cells [8]; lung tumor foci G1 versus G2): ineffective to stop metastasis in melanoma
CCL2 concentration ([9]; Brain): 3.44E+00 pg/mg of protein
CCL3 concentration ([9]; Brain): 1.40E+01 pg/mg of protein
CXCL9 concentration ([9]; Brain): 1.44E+02 pg/mg of protein
GM-CSF concentration ([9]; Brain): 2.53E+01 pg/mg of protein
IL-1α concentration ([9]; Brain): 1.44E+01 pg/mg of protein
IL-2 concentration ([9]; Brain): 6.02E+01 pg/mg of protein
IL-4 concentration ([9]; Brain): 1.36E+02 pg/mg of protein
IL-5 concentration ([9]; Brain): 1.18E+02 pg/mg of protein
IL-12 concentration ([9]; Brain): 5.29E+00 pg/mg of protein
IL-17 concentration ([9]; Brain): 8.06E+01 pg/mg of protein
TNF-α concentration ([9]; Brain): 1.26E+01 pg/mg of protein
bFGF concentration ([9]; Brain): 1.16E+04 pg/mg of protein
CCL2 concentration ([9]; Lung): 4.71E+01 pg/mg of protein
CCL3 concentration ([9]; Lung): 5.36E+01 pg/mg of protein
CXCL9 concentration ([9]; Lung): 3.88E+03 pg/mg of protein
GM-CSF concentration ([9]; Lung): 4.06E+01 pg/mg of protein
IL-1α concentration ([9]; Lung): 1.50E+02 pg/mg of protein
IL-2 concentration ([9]; Lung): 6.28E+01 pg/mg of protein
IL-4 concentration ([9]; Lung): 1.49E+02 pg/mg of protein
IL-5 concentration ([9]; Lung): 2.06E+02 pg/mg of protein
IL-12 concentration ([9]; Lung): 3.83E+00 pg/mg of protein
IL-17 concentration ([9]; Lung): 6.22E+00 pg/mg of protein
TNF-α concentration ([9]; Lung): 3.21E+01 pg/mg of protein
bFGF concentration ([9]; Lung): 3.61E+03 pg/mg of protein
CCL2 concentration ([9]; Spleen): 1.19E+01 ± 4.41E+00 pg/mg of protein
CCL3 concentration ([9]; Spleen): 4.99E+01 ± 1.51E+01 pg/mg of protein
CXCL9 concentration ([9]; Spleen): 2.31E+04 ± 1.36E+04 pg/mg of protein
GM-CSF concentration ([9]; Spleen): 3.79E+01 ± 1.60E+01 pg/mg of protein
IL-1α concentration ([9]; Spleen): 6.28E+02 ± 2.42E+02 pg/mg of protein
IL-2 concentration ([9]; Spleen): 6.65E+01 ± 1.05E+01 pg/mg of protein
IL-4 concentration ([9]; Spleen): 7.03E+01 ± 9.56E+01 pg/mg of protein
IL-5 concentration ([9]; Spleen): 1.65E+02 ± 1.00E+02 pg/mg of protein
IL-12 concentration ([9]; Spleen): 8.06E+01 ± 3.61E+01 pg/mg of protein
IL-17 concentration ([9]; Spleen): 2.98E+00 ± 3.01E+00 pg/mg of protein
TNF-α concentration ([9]; Spleen): 1.00E+02 ± 2.46E+01 pg/mg of protein
bFGF concentration ([9]; Spleen): 2.30E+04 ± 3.54E+03 pg/mg of protein
cytokine profile in serum or liver samples versus G2 ([9]; serum, liver): no differences were found
mean survival (melanoma): increased the mean survival
primary tumor necrosis (melanoma): increased primary tumor necrosis
tumor growth rate (melanoma): delayed tumor growth rate
survival with respect to saline-treated mice (Kaplan-Meyer) (4T1 cells [10]): significantly increased survival
